According to the supplement of paper PMC13380429:

Columns and labels:
[1] = tested on: A549-ACE2 infected with SARS-CoV-2; test: cell count relative to DMSO; higher = less toxic; details: 24 h
Caco-2 [2] = test: cell viability relative to DMSO; higher = less toxic; details: 72 h
Calu-3 [3] = test: as above; details: 72 h
HepG2 [4] = test: as above; details: 72 h
U2OS [5] = test: as above; details: 72 h
Vero E6 [6] = test: as above; details: 72 h
[7] = tested on: A549-ACE2 infected with SARS-CoV-2; test: SARS-CoV-2 infection rate relative to DMSO; higher = more infection; details: 24 h
A549-ACE2 [8] = test: phospholipidosis EC50; higher = less potent phospholipidosis inducer
A549-ACE2 [9] = test: drug-induced phospholipidosis relative to tamoxifen; higher = more phospholipidosis
[10] = tested on: A549-ACE2 infected with SARS-CoV-2; test: morphology score (similarity to uninfected cells); higher = more like uninfected cells; details: 24 h
Caco-2 [11] = test: relative viability EC50 (midpoint between 100% and the lowest measured viability); higher = less toxic; details: 72 h
Calu-3 [12] = test: as above; details: 72 h
HepG2 [13] = test: as above; details: 72 h
U2OS [14] = test: as above; details: 72 h
Vero E6 [15] = test: as above; details: 72 h
Caco-2 [16] = test: drug sensitivity score (DSS) for viability; higher = more toxic; extreme values may be limits of the assay; details: 72 h
Calu-3 [17] = test: as above; details: 72 h
HepG2 [18] = test: as above; details: 72 h
U2OS [19] = test: as above; details: 72 h
Vero E6 [20] = test: as above; details: 72 h

CNCc1ccc(C)c(NC(=O)c2ccc(Nc3nc(-c4ccccc4)c4ccccc4n3)cc2)c1
Details | SARS-CoV-2 infection rate [%] | cell count [%] | cell viability [%] | morphology score | phospholipidosis EC50 [µM]
A549-ACE2 [8], 24 h | – | – | – | – | 1.58
A549-ACE2 [8], 48 h | – | – | – | – | 1.49
A549-ACE2 [8], 72 h | – | – | – | – | 2.07
Caco-2 [2], 1 nM | – | – | 93.8 | – | –
Caco-2 [2], 10 nM | – | – | 99.5 | – | –
Caco-2 [2], 100 nM | – | – | 90.1 | – | –
Caco-2 [2], 1000 nM | – | – | 98.3 | – | –
Caco-2 [2], 10000 nM | – | – | 25.4 | – | –
Calu-3 [3], 1 nM | – | – | 96.6 | – | –
Calu-3 [3], 10 nM | – | – | 101 | – | –
Calu-3 [3], 100 nM | – | – | 102 | – | –
Calu-3 [3], 1000 nM | – | – | 92 | – | –
Calu-3 [3], 10000 nM | – | – | 4.1 | – | –
HepG2 [4], 1 nM | – | – | 107 | – | –
HepG2 [4], 10 nM | – | – | 104 | – | –
HepG2 [4], 100 nM | – | – | 105 | – | –
HepG2 [4], 1000 nM | – | – | 88.3 | – | –
HepG2 [4], 10000 nM | – | – | 36.8 | – | –
U2OS [5], 1 nM | – | – | 100 | – | –
U2OS [5], 10 nM | – | – | 101 | – | –
U2OS [5], 100 nM | – | – | 103 | – | –
U2OS [5], 1000 nM | – | – | 100 | – | –
U2OS [5], 10000 nM | – | – | 35.3 | – | –
Vero E6 [6], 1 nM | – | – | 101 | – | –
Vero E6 [6], 10 nM | – | – | 99.6 | – | –
Vero E6 [6], 100 nM | – | – | 100 | – | –
Vero E6 [6], 1000 nM | – | – | 98.2 | – | –
Vero E6 [6], 10000 nM | – | – | 42.1 | – | –
[1], 0.1 µM | – | 103 | – | – | –
[1], 0.3 µM | – | 101 | – | – | –
[1], 1 µM | – | 108 | – | – | –
[1], 3 µM | – | 127 | – | – | –
[7], 0.1 µM | 99 | – | – | – | –
[7], 0.3 µM | 86 | – | – | – | –
[7], 1 µM | 89 | – | – | – | –
[7], 3 µM | 24 | – | – | – | –
[10], 0.1 µM | – | – | – | 0.21 | –
[10], 0.3 µM | – | – | – | 0.36 | –
[10], 1 µM | – | – | – | 0.34 | –
[10], 3 µM | – | – | – | 0.88 | –

drug-induced phospholipidosis [%], A549-ACE2 [9]
Details | 0.3 µM | 0.833333 µM | 3.33333 µM | 6.66667 µM | 10 µM | 30 µM
24 h | 5.53 | 23.7 | 77.2 | 98.9 | 84.8 | 99.7
48 h | 5.67 | 17.1 | 89.4 | 102 | 92.4 | –
72 h | 1.97 | 13.2 | 86.2 | 99.1 | 115 | –

Details | drug sensitivity score | relative viability EC50 [µM]
Caco-2 [11] | – | 3
Caco-2 [16] | 4.3 | –
Calu-3 [12] | – | 2.48
Calu-3 [17] | 6.6 | –
HepG2 [13] | – | 1.81
HepG2 [18] | 5.4 | –
U2OS [14] | – | 3.21
U2OS [19] | 3.5 | –
Vero E6 [15] | – | 2.94
Vero E6 [20] | 3.4 | –

Cc1cccc(Nc2nc(-c3ccncc3)cs2)c1
Details | SARS-CoV-2 infection rate [%] | cell count [%] | cell viability [%] | morphology score | phospholipidosis EC50 [µM]
A549-ACE2 [8], 24 h | – | – | – | – | 2.94
A549-ACE2 [8], 48 h | – | – | – | – | 2.72
A549-ACE2 [8], 72 h | – | – | – | – | 3.3
Caco-2 [2], 1 nM | – | – | 102 | – | –
Caco-2 [2], 10 nM | – | – | 111 | – | –
Caco-2 [2], 100 nM | – | – | 97.4 | – | –
Caco-2 [2], 1000 nM | – | – | 98 | – | –
Caco-2 [2], 10000 nM | – | – | 85.8 | – | –
HepG2 [4], 1 nM | – | – | 104 | – | –
HepG2 [4], 10 nM | – | – | 108 | – | –
HepG2 [4], 100 nM | – | – | 97.2 | – | –
HepG2 [4], 1000 nM | – | – | 94.1 | – | –
HepG2 [4], 10000 nM | – | – | 48.5 | – | –
U2OS [5], 1 nM | – | – | 99.2 | – | –
U2OS [5], 10 nM | – | – | 98.5 | – | –
U2OS [5], 100 nM | – | – | 95.8 | – | –
U2OS [5], 1000 nM | – | – | 98.5 | – | –
U2OS [5], 10000 nM | – | – | 93.6 | – | –
Vero E6 [6], 1 nM | – | – | 95.5 | – | –
Vero E6 [6], 10 nM | – | – | 111 | – | –
Vero E6 [6], 100 nM | – | – | 99 | – | –
Vero E6 [6], 1000 nM | – | – | 94.9 | – | –
Vero E6 [6], 10000 nM | – | – | 70.6 | – | –
[1], 0.1 µM | – | 108 | – | – | –
[1], 0.3 µM | – | 107 | – | – | –
[1], 1 µM | – | 110 | – | – | –
[1], 3 µM | – | 106 | – | – | –
[7], 0.1 µM | 92 | – | – | – | –
[7], 0.3 µM | 91 | – | – | – | –
[7], 1 µM | 83 | – | – | – | –
[7], 3 µM | 50 | – | – | – | –
[10], 0.1 µM | – | – | – | 0.25 | –
[10], 0.3 µM | – | – | – | 0.02 | –
[10], 1 µM | – | – | – | 0.28 | –
[10], 3 µM | – | – | – | 0.31 | –

drug-induced phospholipidosis [%], A549-ACE2 [9]
Details | 0.3 µM | 0.833333 µM | 3.33333 µM | 6.66667 µM | 10 µM | 30 µM
24 h | 2.6 | 8.64 | 73.8 | 102 | 110 | 57.3
48 h | 5.9 | 9.76 | 87.3 | 116 | 123 | 69.6
72 h | 6.14 | 9.12 | 70 | 125 | 120 | –

Details | drug sensitivity score | relative viability EC50 [µM]
Caco-2 [11] | – | > 10
Caco-2 [16] | 0.3 | –
HepG2 [13] | – | 2.22
HepG2 [18] | 3.7 | –
U2OS [14] | – | > 10
U2OS [19] | 0 | –
Vero E6 [20] | 2.1 | –

Cn1cc(C2=C(c3ccc(Cl)cc3Cl)C(=O)NC2=O)c2ccccc21
Details | SARS-CoV-2 infection rate [%] | cell count [%] | cell viability [%] | morphology score | phospholipidosis EC50 [µM]
A549-ACE2 [8], 24 h | – | – | – | – | 6.83
A549-ACE2 [8], 48 h | – | – | – | – | 1.87
A549-ACE2 [8], 72 h | – | – | – | – | 3.22
Caco-2 [2], 1 nM | – | – | 105 | – | –
Caco-2 [2], 10 nM | – | – | 99.9 | – | –
Caco-2 [2], 100 nM | – | – | 92.5 | – | –
Caco-2 [2], 1000 nM | – | – | 105 | – | –
Caco-2 [2], 10000 nM | – | – | 93.1 | – | –
Calu-3 [3], 1 nM | – | – | 113 | – | –
Calu-3 [3], 10 nM | – | – | 108 | – | –
Calu-3 [3], 100 nM | – | – | 99.5 | – | –
Calu-3 [3], 1000 nM | – | – | 122 | – | –
Calu-3 [3], 10000 nM | – | – | 103 | – | –
HepG2 [4], 1 nM | – | – | 98.8 | – | –
HepG2 [4], 10 nM | – | – | 95 | – | –
HepG2 [4], 100 nM | – | – | 100 | – | –
HepG2 [4], 1000 nM | – | – | 95.1 | – | –
HepG2 [4], 10000 nM | – | – | 87.2 | – | –
U2OS [5], 1 nM | – | – | 100 | – | –
U2OS [5], 10 nM | – | – | 97.9 | – | –
U2OS [5], 100 nM | – | – | 97.8 | – | –
U2OS [5], 1000 nM | – | – | 100 | – | –
U2OS [5], 10000 nM | – | – | 97.8 | – | –
Vero E6 [6], 1 nM | – | – | 99.1 | – | –
Vero E6 [6], 10 nM | – | – | 98 | – | –
Vero E6 [6], 100 nM | – | – | 98.4 | – | –
Vero E6 [6], 1000 nM | – | – | 96.2 | – | –
Vero E6 [6], 10000 nM | – | – | 99.8 | – | –
[1], 0.3 µM | – | 96 | – | – | –
[1], 3 µM | – | 94 | – | – | –
[1], 10 µM | – | 96 | – | – | –
[1], 30 µM | – | 91 | – | – | –
[7], 0.3 µM | 109 | – | – | – | –
[7], 3 µM | 101 | – | – | – | –
[7], 10 µM | 90 | – | – | – | –
[7], 30 µM | 91 | – | – | – | –
[10], 0.3 µM | – | – | – | -0.36 | –
[10], 3 µM | – | – | – | -0.27 | –
[10], 10 µM | – | – | – | -0.07 | –
[10], 30 µM | – | – | – | -0.09 | –

drug-induced phospholipidosis [%], A549-ACE2 [9]
Details | 0.3 µM | 0.833333 µM | 3.33333 µM | 6.66667 µM | 10 µM | 30 µM
24 h | 3.42 | 26.9 | 57 | 74.1 | 90.2 | 107
48 h | 4.24 | 11.7 | 45.3 | 55.7 | 59.6 | 55.3
72 h | 4.76 | 5.3 | 35.3 | 56 | 56.2 | 54.6

Details | drug sensitivity score | relative viability EC50 [µM]
Caco-2 [11] | – | > 10
Caco-2 [16] | 0 | –
Calu-3 [12] | – | > 10
Calu-3 [17] | 0 | –
HepG2 [13] | – | > 10
HepG2 [18] | 0.3 | –
U2OS [14] | – | > 10
U2OS [19] | 0 | –
Vero E6 [15] | – | > 10
Vero E6 [20] | 0 | –
